ChEMBL document CHEMBL3885881, “DrugMatrix”

Species: Rattus norvegicus
Assay: DrugMatrix - Regimen: Daily Repeat
Assay type: toxicity, organism-based, Sprague-Dawley
Set-up: regimen Daily Repeat, gender Male, age 6-8 weeks
Settings: in vivo, ip, 50 mg/kg, route intraperitoneal, dose level High, […]; for ABSOLUTE BASOPHIL / ABSOLUTE EOSINOPHIL / ABSOLUTE LYMPHOCYTE / ABSOLUTE MONOCYTE / ABSOLUTE SEGMENTED NEUTROPHIL / BASOPHIL / EOSINOPHIL / ERYTHROCYTE COUNT / HEMATOCRIT / HEMOGLOBIN / LEUKOCYTE COUNT / LYMPHOCYTE / MEAN CORPUSCULAR HEMOGLOBIN / MEAN CORPUSCULAR HEMOGLOBIN CONCENTRATION / MEAN CORPUSCULAR VOLUME / MONOCYTE / NEUTROPHIL / NUCLEATED RED BLOOD CELLS / PLATELET COUNT: tissue Blood; for ALANINE AMINOTRANSFERASE / ALBUMIN / ALKALINE PHOSPHATASE / ASPARTATE AMINOTRANSFERASE / BLOOD UREA NITROGEN / CARBON DIOXIDE / CHLORIDE / CHOLESTEROL / CREATININE / GLUCOSE / LACTATE DEHYDROGENASE / LIPASE / PHOSPHORUS / POTASSIUM / SODIUM / TOTAL BILIRUBIN / TOTAL PROTEIN / URIC ACID: tissue Plasma

ClC(Cl)=C(Cl)C(Cl)=C(Cl)Cl [HEXACHLOROBUTADIENE]
ABSOLUTE BASOPHIL (72 h, time 3 day): 0 CELLS/uL
ABSOLUTE EOSINOPHIL (72 h, time 3 day): 265.33 CELLS/uL
ABSOLUTE LYMPHOCYTE (72 h, time 3 day): 14659.33 CELLS/uL
ABSOLUTE MONOCYTE (72 h, time 3 day): 513.33 CELLS/uL
ABSOLUTE SEGMENTED NEUTROPHIL (72 h, time 3 day): 2862 CELLS/uL
BASOPHIL (72 h, time 3 day): 0%
EOSINOPHIL (72 h, time 3 day): 1.33%
ERYTHROCYTE COUNT (72 h, time 3 day): 6.15 x10E6/uL
HEMATOCRIT (72 h, time 3 day): 36.87%
HEMOGLOBIN (72 h, time 3 day): 13.3 G/DL
LEUKOCYTE COUNT (72 h, time 3 day): 18.3 x10E3/uL
LYMPHOCYTE (72 h, time 3 day): 80.67%
MEAN CORPUSCULAR HEMOGLOBIN (72 h, time 3 day): 21.63 pg
MEAN CORPUSCULAR HEMOGLOBIN CONCENTRATION (72 h, time 3 day): 36.1 G/DL
MEAN CORPUSCULAR VOLUME (72 h, time 3 day): 60 fL
MONOCYTE (72 h, time 3 day): 2.67%
NEUTROPHIL (72 h, time 3 day): 15.33%
NUCLEATED RED BLOOD CELLS (72 h, time 3 day): 0 /100WBC
PLATELET COUNT (72 h, time 3 day): 1031 x10E3/uL
ALANINE AMINOTRANSFERASE (72 h, time 3 day): 36.33 u/L
ALBUMIN (72 h, time 3 day): 4.23 G/DL
ALKALINE PHOSPHATASE (72 h, time 3 day): 328.33 u/L
ASPARTATE AMINOTRANSFERASE (72 h, time 3 day): 101 u/L
BLOOD UREA NITROGEN (72 h, time 3 day): 11.67 mg/dL
CARBON DIOXIDE (72 h, time 3 day): 30.33 mmol/L
CHLORIDE (72 h, time 3 day): 102 MEQ/L
CHOLESTEROL (72 h, time 3 day): 84.67 mg/dL
CREATININE (72 h, time 3 day): 0.16 mg/dL
GLUCOSE (72 h, time 3 day): 173 mg/dL
LACTATE DEHYDROGENASE (72 h, time 3 day): 166 u/L
LIPASE (72 h, time 3 day): 9.67 u/L
PHOSPHORUS (72 h, time 3 day): 11.6 mg/dL
POTASSIUM (72 h, time 3 day): 6.25 MEQ/L
SODIUM (72 h, time 3 day): 147.3 MEQ/L
TOTAL BILIRUBIN (72 h, time 3 day): 0.13 mg/dL
TOTAL PROTEIN (72 h, time 3 day): 6.3 G/DL
URIC ACID (72 h, time 3 day): 2.6 mg/dL
ABSOLUTE BASOPHIL (120 h, time 5 day): 0 CELLS/uL
ABSOLUTE EOSINOPHIL (120 h, time 5 day): 230 CELLS/uL
ABSOLUTE LYMPHOCYTE (120 h, time 5 day): 9645 CELLS/uL
ABSOLUTE MONOCYTE (120 h, time 5 day): 302 CELLS/uL
ABSOLUTE SEGMENTED NEUTROPHIL (120 h, time 5 day): 1323 CELLS/uL
BASOPHIL (120 h, time 5 day): 0%
EOSINOPHIL (120 h, time 5 day): 2%
ERYTHROCYTE COUNT (120 h, time 5 day): 5.76 x10E6/uL
HEMATOCRIT (120 h, time 5 day): 36.65%
HEMOGLOBIN (120 h, time 5 day): 13.3 G/DL
LEUKOCYTE COUNT (120 h, time 5 day): 11.5 x10E3/uL
LYMPHOCYTE (120 h, time 5 day): 84.5%
MEAN CORPUSCULAR HEMOGLOBIN (120 h, time 5 day): 23.1 pg
MEAN CORPUSCULAR HEMOGLOBIN CONCENTRATION (120 h, time 5 day): 36.25 G/DL
MEAN CORPUSCULAR VOLUME (120 h, time 5 day): 63.6 fL
MONOCYTE (120 h, time 5 day): 2.5%
NEUTROPHIL (120 h, time 5 day): 11%
NUCLEATED RED BLOOD CELLS (120 h, time 5 day): 0 /100WBC
PLATELET COUNT (120 h, time 5 day): 1216 x10E3/uL
ALANINE AMINOTRANSFERASE (120 h, time 5 day): 39 u/L
ALBUMIN (120 h, time 5 day): 4.3 G/DL
ALKALINE PHOSPHATASE (120 h, time 5 day): 279.5 u/L
ASPARTATE AMINOTRANSFERASE (120 h, time 5 day): 100.5 u/L
BLOOD UREA NITROGEN (120 h, time 5 day): 11.5 mg/dL
CARBON DIOXIDE (120 h, time 5 day): 32.5 mmol/L
CHLORIDE (120 h, time 5 day): 101 MEQ/L
CHOLESTEROL (120 h, time 5 day): 106 mg/dL
CREATININE (120 h, time 5 day): 0.19 mg/dL
GLUCOSE (120 h, time 5 day): 171.5 mg/dL
LACTATE DEHYDROGENASE (120 h, time 5 day): 160.5 u/L
LIPASE (120 h, time 5 day): 9.5 u/L
PHOSPHORUS (120 h, time 5 day): 13.95 mg/dL
POTASSIUM (120 h, time 5 day): 6 MEQ/L
SODIUM (120 h, time 5 day): 147.1 MEQ/L
TOTAL BILIRUBIN (120 h, time 5 day): 0.2 mg/dL
TOTAL PROTEIN (120 h, time 5 day): 6.6 G/DL
URIC ACID (120 h, time 5 day): 1.75 mg/dL
ABSOLUTE BASOPHIL (time 14 day): 0 CELLS/uL
ABSOLUTE EOSINOPHIL (time 14 day): 146.4 CELLS/uL
ABSOLUTE LYMPHOCYTE (time 14 day): 11678.6 CELLS/uL
ABSOLUTE MONOCYTE (time 14 day): 306.2 CELLS/uL
ABSOLUTE SEGMENTED NEUTROPHIL (time 14 day): 1488.8 CELLS/uL
BASOPHIL (time 14 day): 0%
EOSINOPHIL (time 14 day): 1.2%
ERYTHROCYTE COUNT (time 14 day): 6.11 x10E6/uL
HEMATOCRIT (time 14 day): 35.9%
HEMOGLOBIN (time 14 day): 13.2 G/DL
LEUKOCYTE COUNT (time 14 day): 13.62 x10E3/uL
LYMPHOCYTE (time 14 day): 86.4%
MEAN CORPUSCULAR HEMOGLOBIN (time 14 day): 21.6 pg
MEAN CORPUSCULAR HEMOGLOBIN CONCENTRATION (time 14 day): 36.82 G/DL
MEAN CORPUSCULAR VOLUME (time 14 day): 58.64 fL
MONOCYTE (time 14 day): 2.2%
NEUTROPHIL (time 14 day): 10.2%
NUCLEATED RED BLOOD CELLS (time 14 day): 0 /100WBC
PLATELET COUNT (time 14 day): 1058.6 x10E3/uL
ALANINE AMINOTRANSFERASE (time 14 day): 31.2 u/L
ALBUMIN (time 14 day): 4.2 G/DL
ALKALINE PHOSPHATASE (time 14 day): 238.6 u/L
ASPARTATE AMINOTRANSFERASE (time 14 day): 99.6 u/L
BLOOD UREA NITROGEN (time 14 day): 13.8 mg/dL
CARBON DIOXIDE (time 14 day): 30.8 mmol/L
CHLORIDE (time 14 day): 102 MEQ/L
CHOLESTEROL (time 14 day): 83.6 mg/dL
CREATININE (time 14 day): 0.2 mg/dL
GLUCOSE (time 14 day): 149.2 mg/dL
LACTATE DEHYDROGENASE (time 14 day): 133.2 u/L
LIPASE (time 14 day): 10.4 u/L
PHOSPHORUS (time 14 day): 9.96 mg/dL
POTASSIUM (time 14 day): 5.75 MEQ/L
SODIUM (time 14 day): 145.2 MEQ/L
TOTAL BILIRUBIN (time 14 day): 0.18 mg/dL
TOTAL PROTEIN (time 14 day): 6.18 G/DL
URIC ACID (time 14 day): 1 mg/dL
